Assay results taken from PubChem BioAssay AID1963980 (Molecular Pharmacology Branch, DTP, NCI, 2024).
Values belong to the compound of their own block, whether it stands above or below them.

System: 475296-252-R-J1-PDC spheroid viability
Assay: Anticancer human tumor 475296-252-R-J1-PDC patient-derived rectal carcinoma cell line growth inhibition [PI3K]
Conditions: spheroids with HUVEC and MSC; for IC50: curve of first compound; for viability, T/C: stronger effect = lower value
Summary of the method: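 Viability of mixed-cell spheroids was determined after exposure to pairwise combinations, one partner being inavolisib, alpelisib, duvelisib or copanlisib. Highest tested concentration matched clinical Cmax where known and 10 microM where not, descending in half-log steps.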

[1] = second compound 0.00316 µM, first compound 0.000316 µM
[2] = second compound 0.00316 µM, first compound 0.001 µM
[3] = second compound 0.00316 µM, first compound 0.00316 µM
[4] = second compound 0.00316 µM, first compound 0.01 µM
[5] = second compound 0.00316 µM, first compound 0.0316 µM
[6] = second compound 0.00316 µM, first compound 0.1 µM
[7] = second compound 0.01 µM, first compound 0.000316 µM
[8] = second compound 0.01 µM, first compound 0.001 µM
[9] = second compound 0.01 µM, first compound 0.00316 µM
[10] = second compound 0.01 µM, first compound 0.01 µM
[11] = second compound 0.01 µM, first compound 0.0316 µM
[12] = second compound 0.01 µM, first compound 0.1 µM
[13] = second compound 0.0316 µM, first compound 0.000316 µM
[14] = second compound 0.0316 µM, first compound 0.001 µM
[15] = second compound 0.0316 µM, first compound 0.00316 µM
[16] = second compound 0.0316 µM, first compound 0.01 µM
[17] = second compound 0.0316 µM, first compound 0.0316 µM
[18] = second compound 0.0316 µM, first compound 0.1 µM
[19] = second compound 0.1 µM, first compound 0.000316 µM
[20] = second compound 0.1 µM, first compound 0.001 µM
[21] = second compound 0.1 µM, first compound 0.00316 µM
[22] = second compound 0.1 µM, first compound 0.01 µM
[23] = second compound 0.1 µM, first compound 0.0316 µM
[24] = second compound 0.1 µM, first compound 0.1 µM
[25] = second compound 0.316 µM, first compound 0.000316 µM
[26] = second compound 0.316 µM, first compound 0.001 µM
[27] = second compound 0.316 µM, first compound 0.00316 µM
[28] = second compound 0.316 µM, first compound 0.01 µM
[29] = second compound 0.316 µM, first compound 0.0316 µM
[30] = second compound 0.316 µM, first compound 0.1 µM
[31] = second compound 1 µM, first compound 0.000316 µM
[32] = second compound 1 µM, first compound 0.001 µM
[33] = second compound 1 µM, first compound 0.00316 µM
[34] = second compound 1 µM, first compound 0.01 µM
[35] = second compound 1 µM, first compound 0.0316 µM
[36] = second compound 1 µM, first compound 0.1 µM
[37] = second compound 0.00316 µM, first compound 0.316 µM
[38] = second compound 0.00316 µM, first compound 1 µM
[39] = second compound 0.00316 µM, first compound 3.16 µM
[40] = second compound 0.00316 µM, first compound 10 µM
[41] = second compound 0.01 µM, first compound 0.316 µM
[42] = second compound 0.01 µM, first compound 1 µM
[43] = second compound 0.01 µM, first compound 3.16 µM
[44] = second compound 0.01 µM, first compound 10 µM
[45] = second compound 0.0316 µM, first compound 0.316 µM
[46] = second compound 0.0316 µM, first compound 1 µM
[47] = second compound 0.0316 µM, first compound 3.16 µM
[48] = second compound 0.0316 µM, first compound 10 µM
[49] = second compound 0.1 µM, first compound 0.316 µM
[50] = second compound 0.1 µM, first compound 1 µM
[51] = second compound 0.1 µM, first compound 3.16 µM
[52] = second compound 0.1 µM, first compound 10 µM
[53] = second compound 0.316 µM, first compound 0.316 µM
[54] = second compound 0.316 µM, first compound 1 µM
[55] = second compound 0.316 µM, first compound 3.16 µM
[56] = second compound 0.316 µM, first compound 10 µM
[57] = second compound 1 µM, first compound 0.316 µM
[58] = second compound 1 µM, first compound 1 µM
[59] = second compound 1 µM, first compound 3.16 µM
[60] = second compound 1 µM, first compound 10 µM
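Also: spheroids exposed to agents for seven days before readout.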

IC50 (second compound 0.00316 µM): > 100 nM
IC50 (second compound 0.01 µM): > 100 nM
IC50 (second compound 0.0316 µM): > 100 nM
IC50 (second compound 0.1 µM): > 100 nM
IC50 (second compound 0.316 µM): > 100 nM
IC50 (second compound 1 µM): > 100 nM
SMILES: CC(=O)c1c(C)c2cnc(Nc3ccc(N4CCNCC4)cn3)nc2n(C2CCCC2)c1=O + COc1c(OCCCN2CCOCC2)ccc2c3n(c(=NC(=O)c4cnc(N)nc4)nc12)CCN3
viability, T/C [1]: 108%
viability, T/C [2]: 101%
viability, T/C [3]: 104%
viability, T/C [4]: 119%
viability, T/C [5]: 113%
viability, T/C [6]: 108%
viability, T/C [7]: 97.4%
viability, T/C [8]: 99.5%
viability, T/C [9]: 95.9%
viability, T/C [10]: 99.5%
viability, T/C [11]: 98.5%
viability, T/C [12]: 99.8%
viability, T/C [13]: 96.2%
viability, T/C [14]: 86%
viability, T/C [15]: 90.5%
viability, T/C [16]: 98.7%
viability, T/C [17]: 105%
viability, T/C [18]: 99.8%
viability, T/C [19]: 77.8%
viability, T/C [20]: 82.3%
viability, T/C [21]: 97.6%
viability, T/C [22]: 77.8%
viability, T/C [23]: 83.9%
viability, T/C [24]: 84.1%
viability, T/C [25]: 71.6%
viability, T/C [26]: 75.5%
viability, T/C [27]: 70.7%
viability, T/C [28]: 72.6%
viability, T/C [29]: 82.8%
viability, T/C [30]: 84.6%
viability, T/C [31]: 60.7%
viability, T/C [32]: 56.7%
viability, T/C [33]: 69.3%
viability, T/C [34]: 61.5%
viability, T/C [35]: 59.7%
viability, T/C [36]: 52.4%

IC50 (second compound 0.00316 µM): > 100 nM
IC50 (second compound 0.01 µM): > 100 nM
IC50 (second compound 0.0316 µM): > 100 nM
IC50 (second compound 0.1 µM): 98.7 nM
IC50 (second compound 0.316 µM): 49 nM
IC50 (second compound 1 µM): 34.4 nM
SMILES: CC(C)n1nc(-c2ccc3oc(N)nc3c2)c2c(N)ncnc21 + COc1c(OCCCN2CCOCC2)ccc2c3n(c(=NC(=O)c4cnc(N)nc4)nc12)CCN3
viability, T/C [1]: 96.8%
viability, T/C [2]: 99.5%
viability, T/C [3]: 84.6%
viability, T/C [4]: 73.2%
viability, T/C [5]: 81.4%
viability, T/C [6]: 56.9%
viability, T/C [7]: 96.5%
viability, T/C [8]: 90.7%
viability, T/C [9]: 97.4%
viability, T/C [10]: 92%
viability, T/C [11]: 75.2%
viability, T/C [12]: 64.3%
viability, T/C [13]: 91.4%
viability, T/C [14]: 85.8%
viability, T/C [15]: 101%
viability, T/C [16]: 82%
viability, T/C [17]: 81.9%
viability, T/C [18]: 51.7%
viability, T/C [19]: 95.2%
viability, T/C [20]: 84.8%
viability, T/C [21]: 78.8%
viability, T/C [22]: 79.6%
viability, T/C [23]: 68.8%
viability, T/C [24]: 48.3%
viability, T/C [25]: 71.7%
viability, T/C [26]: 67.6%
viability, T/C [27]: 68.2%
viability, T/C [28]: 73%
viability, T/C [29]: 56.5%
viability, T/C [30]: 35.2%
viability, T/C [31]: 60.8%
viability, T/C [32]: 56.7%
viability, T/C [33]: 59.5%
viability, T/C [34]: 55.6%
viability, T/C [35]: 51.6%
viability, T/C [36]: 35.6%

IC50 (second compound 0.00316 µM): > 10000 nM
IC50 (second compound 0.01 µM): > 10000 nM
IC50 (second compound 0.0316 µM): > 10000 nM
IC50 (second compound 0.1 µM): > 10000 nM
IC50 (second compound 0.316 µM): > 10000 nM
IC50 (second compound 1 µM): > 10000 nM
SMILES: CCCS(=O)(=O)Nc1ccc(F)c(C(=O)c2c[nH]c3ncc(-c4ccc(Cl)cc4)cc23)c1F + COc1c(OCCCN2CCOCC2)ccc2c3n(c(=NC(=O)c4cnc(N)nc4)nc12)CCN3
viability, T/C [5]: 102%
viability, T/C [6]: 85.2%
viability, T/C [37]: 98.7%
viability, T/C [38]: 103%
viability, T/C [39]: 98.4%
viability, T/C [40]: 105%
viability, T/C [11]: 94%
viability, T/C [12]: 99.5%
viability, T/C [41]: 87.7%
viability, T/C [42]: 86.9%
viability, T/C [43]: 94.2%
viability, T/C [44]: 100%
viability, T/C [17]: 91.9%
viability, T/C [18]: 91.1%
viability, T/C [45]: 93.8%
viability, T/C [46]: 94.8%
viability, T/C [47]: 83.2%
viability, T/C [48]: 87.4%
viability, T/C [23]: 83%
viability, T/C [24]: 80%
viability, T/C [49]: 84.5%
viability, T/C [50]: 78.8%
viability, T/C [51]: 66.4%
viability, T/C [52]: 71.3%
viability, T/C [29]: 67.6%
viability, T/C [30]: 69.8%
viability, T/C [53]: 64.9%
viability, T/C [54]: 70.2%
viability, T/C [55]: 57.5%
viability, T/C [56]: 64.6%
viability, T/C [35]: 62.5%
viability, T/C [36]: 64.1%
viability, T/C [57]: 79.8%
viability, T/C [58]: 57.9%
viability, T/C [59]: 73.3%
viability, T/C [60]: 58.1%

IC50 (second compound 0.00316 µM): > 10000 nM
IC50 (second compound 0.01 µM): > 10000 nM
IC50 (second compound 0.0316 µM): > 10000 nM
IC50 (second compound 0.1 µM): > 10000 nM
IC50 (second compound 0.316 µM): > 10000 nM
IC50 (second compound 1 µM): > 10000 nM
SMILES: CNC(=O)c1ccc(N2C(=S)N(c3ccc(C#N)c(C(F)(F)F)c3)C(=O)C2(C)C)cc1F + COc1c(OCCCN2CCOCC2)ccc2c3n(c(=NC(=O)c4cnc(N)nc4)nc12)CCN3
viability, T/C [5]: 99.1%
viability, T/C [6]: 107%
viability, T/C [37]: 101%
viability, T/C [38]: 95.8%
viability, T/C [39]: 103%
viability, T/C [40]: 108%
viability, T/C [11]: 96.6%
viability, T/C [12]: 94.7%
viability, T/C [41]: 102%
viability, T/C [42]: 97.5%
viability, T/C [43]: 100%
viability, T/C [44]: 96.2%
viability, T/C [17]: 76%
viability, T/C [18]: 88.5%
viability, T/C [45]: 89.7%
viability, T/C [46]: 98.1%
viability, T/C [47]: 91.9%
viability, T/C [48]: 107%
viability, T/C [23]: 75.7%
viability, T/C [24]: 68.5%
viability, T/C [49]: 83.1%
viability, T/C [50]: 81%
viability, T/C [51]: 89.4%
viability, T/C [52]: 87.3%
viability, T/C [29]: 76.6%
viability, T/C [30]: 68.1%
viability, T/C [53]: 71.7%
viability, T/C [54]: 80.9%
viability, T/C [55]: 70.5%
viability, T/C [56]: 72%
viability, T/C [35]: 72.5%
viability, T/C [36]: 72%
viability, T/C [57]: 50.6%
viability, T/C [58]: 60.1%
viability, T/C [59]: 63.5%
viability, T/C [60]: 61.5%
